Results published in patent publication US10689377B2 (Mirati Therapeutics, Inc., priority 2017, dated 2020).

Each compound was assayed against KRas G12C (Homo sapiens, UniProt P01116, G12C) (assay: Cellular inhibition of KRas G12C measured by Phospho-ERK in NCI-H358 cells). Conditions: pERK(Thr202/Tyr204) normalized with GAPDH, NCI-H358 cells, 3 hours; read-out: IC50.
Format: cell-based
Summary of the method: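 Following 8-12 h attachment, NCI-H358 cells got serially diluted compound (0.5% DMSO) for 3 hours. Cells were then fixed, permeabilized with cold methanol, and stained for pERK(Thr202/Tyr204) and GAPDH. Ratios were converted to percent of DMSO control, with IC50 obtained by four-parameter regression.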

Sequence of KRas G12C (P01116 1-188 isoform P01116-2 G12C): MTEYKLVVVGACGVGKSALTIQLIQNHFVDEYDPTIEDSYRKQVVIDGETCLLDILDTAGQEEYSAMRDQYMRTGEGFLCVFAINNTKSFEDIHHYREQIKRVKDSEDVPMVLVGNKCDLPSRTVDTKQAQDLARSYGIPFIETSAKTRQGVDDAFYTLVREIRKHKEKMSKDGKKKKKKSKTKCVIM

C=C(F)C(=O)N1CCN(c2nc(OC[C@H]3C[C@@H](OC)CN3C)nc3c2CCN(c2cccc4cccc(C)c24)C3)C[C@@H]1CC#N [Example 519, 2-[(2S)-1-(2-fluoroprop-2-enoyl)-4-[2-[[(2R,4R)-4-methoxy-1-methyl-pyrrolidin-2-yl]methoxy]-7-(8-methyl-1-naphthyl)-6,8-dihydro-5H-pyrido[3,4-d]pyrimidin-4-yl]piperazin-2-yl]acetonitrile] and CO[C@@H]1C[C@H](COc2nc3c(c(N4CCN(C(=O)/C=C/CO)[C@@H](CC#N)C4)n2)CCN(c2cccc4cccc(C)c24)C3)N(C)C1 [Example 523, 2-[(2S)-1-[(E)-4-hydroxybut-2-enoyl]-4-[2-[[(2R,4R)-4-methoxy-1-methyl-pyrrolidin-2-yl]methoxy]-7-(8-methyl-1-naphthyl)-6,8-dihydro-5H-pyrido[3,4-d]pyrimidin-4-yl]piperazin-2-yl]acetonitrile] fall in the same range of IC50: 0.0001 to 1 µM for the first, 0.0001 to 1 µM for the second.

Cc1cccc2cccc(N3CCc4c(nc(OC[C@@H]5CC(F)(F)CN5C)nc4N4CCN(C(=O)/C=C/CN5CC(F)C5)[C@@H](CC#N)C4)C3)c12 [Example 520, 2-[(2S)-4-[2-[[(2S)-4,4-difluoro-1-methyl-pyrrolidin-2-yl]methoxy]-7-(8-methyl-1-naphthyl)-6,8-dihydro-5H-pyrido[3,4-d]pyrimidin-4-yl]-1-[(E)-4-(3-fluoroazetidin-1-yl)but-2-enoyl]piperazin-2-yl]acetonitrile] and Cc1cccc2cccc(N3CCc4c(nc(OC[C@H]5C[C@@H](F)CN5C)nc4N4CCN(C(=O)/C=C/CO)[C@@H](CC#N)C4)C3)c12 [Example 522, 2-((S)-4-(2-(((2R,4R)-4-fluoro-1-methylpyrrolidin-2-yl)methoxy)-7-(8-methylnaphthalen-1-yl)-5,6,7,8-tetrahydropyrido[3,4-d]pyrimidin-4-yl)-1-((E)-4-hydroxybut-2-enoyl)piperazin-2-yl)acetonitrile] fall in the same range of IC50: 0.0001 to 1 µM for the first, 0.0001 to 1 µM for the second.

C=C(F)C(=O)N1CCN(c2nc(OC[C@@H]3CCCN3C)nc3c2CCN(c2c(C)c(C)cc4[nH]ncc24)C3)C[C@@H]1CC#N [Example 521, 2-[(2S)-4-[7-(5,6-dimethyl-1H-indazol-4-yl)-2-[[(2S)-1-methylpyrrolidin-2-yl]methoxy]-6,8-dihydro-5H-pyrido[3,4-d]pyrimidin-4-yl]-1-(2-fluoroprop-2-enoyl)piperazin-2-yl]acetonitrile] and C=C(F)C(=O)N1CCN(c2nc(OC[C@@H]3CCCN3C)nc3c2CCN(c2c(C(F)(F)F)c(C)cc4[nH]ncc24)C3)C[C@@H]1CC#N [Example 527] fall in the same range of IC50: 0.0001 to 1 µM for the first, 0.0001 to 1 µM for the second.

First: C=C(NC(C)=O)C(=O)N1CCN(c2nc(OC[C@@H]3CCCN3C)nc3c2CCN(c2cccc4cccc(C)c24)C3)C[C@@H]1CC#N [Example 525, N-(3-((S)-2-(cyanomethyl)-4-(7-(8-methylnaphthalen-1-yl)-2-(((S)-1-methylpyrrolidin-2-yl)methoxy)-5,6,7,8-tetrahydropyrido [3,4-d]pyrimidin-4-yl)piperazin-1-yl)-3-oxoprop-1-en-2-yl)acetamide]
Second: C=C(F)C(=O)N1CCN(c2nc(OC[C@@H]3CCC(=O)N3C)nc3c2CCN(c2cccc4cccc(C)c24)C3)C[C@@H]1CC#N [Example 569, 2-[(2S)-1-(2-Fluoroprop-2-enoyl)-4-[7-(8-methyl-1-naphthyl)-2-[[(2S)-1-methyl-5-oxo-pyrrolidin-2-yl]methoxy]-6,8-dihydro-5H-pyrido[3,4-d]pyrimidin-4-yl]piperazin-2-yl]acetonitrile]
The IC50 of the first is lower: 0.0001 to 1 µM for the first, over 1 µM for the second. The first is the more potent here.

In the case of Cc1cccc2cccc(N3CCc4c(nc(OC[C@@H]5CCCN5C)nc4N4CCN(C(=O)/C=C/c5ccncc5)[C@@H](CC#N)C4)C3)c12 [Example 526, 2-((S)-4-(7-(8-methylnaphthalen-1-yl)-2-(((S)-1-methylpyrrolidin-2-yl)methoxy)-5,6,7,8-tetrahydropyrido[3,4-d]pyrimidin-4-yl)-1-((E)-3-(pyridin-4-yl)acryloyl)piperazin-2-yl)acetonitrile], the IC50 is reported as 0.0001 to 1 µM.
